Assay results from ChEMBL document CHEMBL3751755, “Developing steroidal aromatase inhibitors-an effective armament to win the battle against breast cancer” (Eur J Med Chem, 2015).
pIC50, pKi: −log10 of the molar value.

Key:
Aromatase [1] = target: T1, Aromatase (Homo sapiens, UniProt P11511); assay: Inhibition of human aromatase after 30 mins by fluorescence assay
T1 sequence (P11511 whole entry): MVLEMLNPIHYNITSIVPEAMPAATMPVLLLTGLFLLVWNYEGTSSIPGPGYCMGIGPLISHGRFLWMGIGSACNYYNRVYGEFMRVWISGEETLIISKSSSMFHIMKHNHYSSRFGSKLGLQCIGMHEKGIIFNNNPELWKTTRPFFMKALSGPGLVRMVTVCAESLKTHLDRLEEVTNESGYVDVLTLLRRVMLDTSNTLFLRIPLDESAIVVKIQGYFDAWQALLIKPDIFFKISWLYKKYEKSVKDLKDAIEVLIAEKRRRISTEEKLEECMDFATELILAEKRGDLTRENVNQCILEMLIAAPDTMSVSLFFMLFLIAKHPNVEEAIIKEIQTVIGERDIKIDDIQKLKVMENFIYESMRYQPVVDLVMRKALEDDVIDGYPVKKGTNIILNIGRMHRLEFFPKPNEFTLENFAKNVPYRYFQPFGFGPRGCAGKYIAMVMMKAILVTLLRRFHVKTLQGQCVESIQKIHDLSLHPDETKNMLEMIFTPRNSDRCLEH

Aromatase [2] = target: T1, Aromatase; assay: Competitive inhibition of human aromatase extracted from placental microsomes by Lineweaver- Burk plots analysis in presence of 4-androstene-3,17-dione
Aromatase [3] = target: T1, Aromatase; assay: Inhibition of human aromatase extracted from placental microsomes at 520 nM after 10 mins
Aromatase [4] = target: T1, Aromatase; assay: Inhibition of human aromatase extracted from placental microsomes using [1beta,2beta-3H]androstenedione as substrate after 10 mins
Aromatase [5] = target: T1, Aromatase; assay: Time dependent inactivation of human aromatase extracted from placental microsomes using [1-3H]androstenedione as substrate
[6] = Antitumor activity against NMU-induced mammary tumor in rat; type: functional
Aromatase [7] = target: T1, Aromatase
Aromatase [8] = target: T1, Aromatase; remark: listed apart in the source
Aromatase [9] = target: T1, Aromatase; assay: Inhibition of human aromatase extracted from placental microsomes using [1beta-3H]AD as substrate by radiometric assay
Aromatase [10] = target: T1, Aromatase; assay: Competitive inhibition of human aromatase extracted from placental microsomes by Dixon plot analysis in presence of [1beta-3H]AD; conditions: read-out: Ki
Aromatase [11] = target: T2, Aromatase (Rattus norvegicus, UniProt P22443); assay: Inhibition of aromatase in denucleated ovarian fraction extracted from PMSG pretreated Wistar rat by using testosterone as substrate at 1 uM
T2 sequence (P22443 whole entry): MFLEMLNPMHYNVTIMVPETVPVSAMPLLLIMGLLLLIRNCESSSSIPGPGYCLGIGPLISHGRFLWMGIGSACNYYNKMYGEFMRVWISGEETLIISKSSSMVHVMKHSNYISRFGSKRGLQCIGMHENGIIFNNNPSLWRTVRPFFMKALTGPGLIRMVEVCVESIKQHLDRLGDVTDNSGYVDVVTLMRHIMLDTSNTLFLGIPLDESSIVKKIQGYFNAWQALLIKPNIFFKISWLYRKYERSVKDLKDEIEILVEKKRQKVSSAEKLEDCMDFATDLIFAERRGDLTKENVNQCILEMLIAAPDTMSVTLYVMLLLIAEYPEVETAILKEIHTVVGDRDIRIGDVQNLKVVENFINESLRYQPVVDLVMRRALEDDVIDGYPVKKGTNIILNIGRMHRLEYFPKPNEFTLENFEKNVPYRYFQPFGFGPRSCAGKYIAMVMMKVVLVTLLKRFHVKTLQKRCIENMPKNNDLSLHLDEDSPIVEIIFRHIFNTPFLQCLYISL

Aromatase [12] = target: T1, Aromatase; assay: Inhibition of human aromatase extracted from placental microsomes using 4-[14C]androstenedione/androstenedione as substrate assessed as estrogen formation after 30 mins in NADPH-generating system; conditions: 0.5 h
Aromatase [13] = target: T2, Aromatase; assay: Inhibition of rat aromatase extracted from PMSG-primed ovarian fraction using 4-[14C]androstenedione/androstenedione as substrate assessed as estrogen formation after 30 mins in NADPH-generating system; conditions: 0.5 h
Aromatase [14] = target: T1, Aromatase; assay: Competitive inhibition of human aromatase extracted from placental microsomes after 10 mins by Lineweaver- Burk plots analysis in presence of [1beta-3H]androstenedione
Aromatase [15] = target: T1, Aromatase; assay: Inhibition of human aromatase extracted from placental microsomes using [1beta-3H]androstenedione as substrate after 20 mins
Aromatase [16] = target: T1, Aromatase; assay: Inhibition of human aromatase extracted from placental microsomes using [1beta-3H]androstenedione as substrate after 30 mins
Aromatase [17] = target: T1, Aromatase; assay: Inhibition of human aromatase extracted from placental microsomes using [1beta-3H]androstenedione as substrate at 10 to 500 nM after 30 mins; conditions: 0.5 h
Aromatase [18] = target: T1, Aromatase; assay: Competitive inhibition of human aromatase extracted from placental microsomes by double reciprocal plot analysis in presence of 4-androstene-3,17-dione; conditions: read-out: Ki(app)
Aromatase [19] = target: T1, Aromatase; assay: Inhibition of human aromatase extracted from placental microsomes using [1,2-3H]androstenedione as substrate after 30 mins by scintillation counting analysis
Aromatase [20] = target: T1, Aromatase; assay: Inhibition of human aromatase extracted from placental microsomes using 4-[14C]androstenedione as substrate at 0.25 to 1.25 uM after 15 mins
Aromatase [21] = target: T1, Aromatase; remark: listed apart in the source

## COc1ccc([C@@H]2[C@H]3C[C@H]4[C@@H]5CCC6=CC(=O)C=C[C@]6(C)[C@H]5CC[C@]4(C)C3=NN2c2ccccc2)cc1
Aromatase [1]
  pIC50: 5.74

## C[C@]12CCC(=O)C=C1C[C@@H](Sc1ccc(Nc3ccc([N+](=O)[O-])cc3[N+](=O)[O-])cc1)[C@@H]1[C@@H]2CC[C@]2(C)C(=O)CC[C@@H]12
Aromatase [2]
  pKi: 7.62

## C[C@]12CCC(=O)C=C1CC[C@@H]1[C@@H]2CC[C@]2(C)C(=O)[C@H](Br)C[C@@H]12
Aromatase [3]
  inhibition at […]: 95%

## C[C@]12CCC(=O)C(SCF)=C1CC[C@@H]1[C@@H]2CC[C@]2(C)C(=O)CC[C@@H]12
Aromatase [4]
  pIC50: 6.10

## C[C@]12CC[C@H]3[C@@H](CCC4=CC(=O)[C@H]5COC[C@]43C5)[C@@H]1CCC2=O
Aromatase [5]
  pKi: 7.75

## COc1ccc([C@@H]2[C@H]3C[C@H]4[C@@H]5CCC6=CC(=O)C=C[C@]6(C)[C@H]5CC[C@]4(C)C3=NN2C)cc1
Aromatase [1]
  pIC50: 5.74

## C[C@]12CCC(=O)C(F)=C1CC[C@@H]1[C@@H]2CC[C@]2(C)C(=O)CC[C@@H]12
[6]
  Activity: 44%
Aromatase [7]
  pKi: 7.82

## C[C@]12CC[C@H]3[C@@H](CCC4=CC(=O)C=C[C@@]43C)[C@@H]1CC[C@@H]2O
Aromatase [8]
  pKi: 6.59

## C[C@@H]1C[C@@]2(C)C(=CC1=O)CC[C@@H]1[C@@H]2CC[C@]2(C)C(=O)CC[C@@H]12
Aromatase [9]
  pIC50: 6.16
Aromatase [10]
  pKi: 7.26

## C[C@]12CC[C@H]3[C@@H](CCC4=CC(=O)CC[C@@]43[C@@H]3CS3)[C@@H]1CCC2=O
Aromatase [8]
  pKi: 8.70

## CN(C)c1cccc2c(S(=O)(=O)Nc3ccc(S[C@@H]4CC5=CC(=O)CC[C@]5(C)[C@H]5CC[C@]6(C)C(=O)CC[C@H]6[C@H]45)cc3)cccc12
Aromatase [2]
  pKi: 7.62

## C[C@]12CC[C@H]3[C@@H](CCC4=CC(=O)[C@H]5C[C@H](O)[C@]43C5)[C@@H]1CCC2=O
Aromatase [5]
  pKi: 6.03

## C[C@]12CC[C@H]3[C@@H](CCC4=C(O)C(=O)CC[C@@]43C)[C@@H]1CC(=O)OC2
Aromatase [11]
  inhibition at 1 µM: 34.8%

## C[C@]12C=CC(=O)C(O)=C1CC[C@@H]1[C@@H]2CC[C@]2(C)C(=O)CC[C@@H]12
Aromatase [12]
  inhibition (INH): 30%
Aromatase [13]
  inhibition (INH): 30%

## C[C@]12C=CC(=O)C(Sc3ccccc3)=C1C=C[C@@H]1[C@@H]2CC[C@]2(C)C(=O)CC[C@@H]12
Aromatase [14]
  pKi: 8.01

## C[C@]12CC[C@H]3O[C@H]3[C@@H]1CC[C@@H]1[C@@H]2CC[C@]2(C)C(=O)CC[C@@H]12
Aromatase [15]
  pIC50: 6.74

## C[C@]12CC[C@H]3[C@@H](Cc4noc5c4[C@]3(C)CCC5=O)[C@@H]1CC[C@@H]2O
Aromatase [16]
  pIC50: 4.73
Aromatase [17]
  inhibition (INH): 50%

## C[C@]12C=CC(=O)C(Sc3ccccc3)=C1CC[C@@H]1[C@@H]2CC[C@]2(C)C(=O)CC[C@@H]12
Aromatase [14]
  pKi: 8.01

## C[C@]12C=CC(=O)C=C1C[C@@H](Sc1cccc3ccccc13)[C@@H]1[C@@H]2CC[C@]2(C)C(=O)CC[C@@H]12
Aromatase [18]
  pKi: 7.92

## C[C@]12C=CC(=O)C(O)=C1C=C[C@@H]1[C@@H]2CC[C@]2(C)C(=O)CC[C@@H]12
Aromatase [12]
  inhibition (INH): 30%
Aromatase [13]
  inhibition (INH): 30%

## C=C1C[C@@]2(C)C(=CC1=O)CC[C@@H]1[C@@H]2CC[C@]2(C)C(=O)CC[C@@H]12
Aromatase [9]
  pIC50: 6.26
Aromatase [10]
  pKi: 7.17

## C[C@]12C=CC(=O)C=C1CC[C@@H]1[C@@H]2CC[C@]2(C)C(=O)OC[C@@H]12
Aromatase [8]
  pKi: 6.59

## C[C@@]12CCC[C@H]1[C@@H]1CCC3=CC(=O)C=C[C@]3(C)[C@H]1CC2
Aromatase [8]
  pKi: 6.59

## C[C@]12CCC(=O)C(Sc3ccccc3)=C1C=C[C@@H]1[C@@H]2CC[C@]2(C)C(=O)CC[C@@H]12
Aromatase [14]
  pKi: 8.01

## C[C@]12CCC(=O)C=C1C[C@@H](Sc1ccc3ccccc3c1)[C@@H]1[C@@H]2CC[C@]2(C)C(=O)CC[C@@H]12
Aromatase [2]
  pKi: 7.62

## C[C@]12CCC(=O)c3onc(c31)C[C@@H]1[C@@H]2CC[C@]2(C)C(=O)CC[C@@H]12
Aromatase [16]
  pIC50: 5.72
Aromatase [17]
  inhibition (INH): 50%

## C[C@]12CCC(=O)C=C1C[C@@H](Sc1cccc3ccccc13)[C@@H]1[C@@H]2CC[C@]2(C)C(=O)CC[C@@H]12
Aromatase [2]
  pKi: 7.62

## C[C@]12CCC(=O)C(Oc3ccccc3)=C1CC[C@@H]1[C@@H]2CC[C@]2(C)C(=O)CC[C@@H]12
Aromatase [19]
  pIC50: 6.28

## C[C@]12C=CC(=O)C=C1C[C@@H](Sc1ccc3ccccc3c1)[C@@H]1[C@@H]2CC[C@]2(C)C(=O)CC[C@@H]12
Aromatase [18]
  pKi: 7.92

## C[C@]12CC[C@H]3[C@@H](CCC4=CC(=O)[C@H]5C[C@@H](O)[C@]43C5)[C@@H]1CCC2=O
Aromatase [5]
  pKi: 6.06

## C[C@]12CCC(=O)C(SCCl)=C1CC[C@@H]1[C@@H]2CC[C@]2(C)C(=O)CC[C@@H]12
Aromatase [4]
  pIC50: 6.03

## C[C@]12CCC(=O)C(O)=C1C=C[C@@H]1[C@@H]2CC[C@]2(C)C(=O)CC[C@@H]12
Aromatase [12]
  inhibition (INH): 30%
Aromatase [13]
  inhibition (INH): 30%

## C[C@]12CC[C@H]3[C@@H](CCC4=CC(=O)CC[C@@]43CNC(=O)C(F)(F)F)[C@@H]1CCC2=O
Aromatase [20]
  INH: < 20%

## CC1(C)C[C@@]2(C)C(=CC1=O)CC[C@@H]1[C@@H]2CC[C@]2(C)C(=O)CC[C@@H]12
Aromatase [9]
  pIC50: 7.05
Aromatase [10]
  pKi: 8.06

## CN1N=C2[C@H](C[C@H]3[C@@H]4CCC5=CC(=O)C=C[C@]5(C)[C@H]4CC[C@]23C)[C@H]1c1ccccc1
Aromatase [1]
  pIC50: 5.74

## C[C@]12CCC(=O)C(Oc3ccccc3)=C1C[C@@H](Sc1ccccc1)[C@@H]1[C@@H]2CC[C@]2(C)C(=O)CC[C@@H]12
Aromatase [19]
  pIC50: 5.78

## C[C@]12C=CC(=O)C=C1C[C@@H](Sc1ccc(Br)cc1)[C@@H]1[C@@H]2CC[C@]2(C)C(=O)CC[C@@H]12
Aromatase [18]
  pKi: 7.92

## C[C@]12CC[C@H]3[C@@H](CCC4=C(F)C(=O)CC[C@@H]43)[C@@H]1CCC2=O
Aromatase [7]
  pKi: 7.05

## C[C@]12CC[C@H]3[C@@H](CCC4=CC(=O)CC[C@@]43N)[C@@H]1CCC2=O
Aromatase [20]
  INH: < 20%

## C[C@]12C=CC(=O)C=C1CC[C@@H]1[C@@H]2CC[C@]2(C)C3=NN(c4ccccc4)[C@H](c4ccccc4)[C@H]3C[C@@H]12
Aromatase [1]
  pIC50: 5.74

## C[C@@H]1OC(=O)C[C@H]2[C@@H]3CCC4=C(O)C(=O)CC[C@]4(C)[C@H]3CC[C@]12C
Aromatase [11]
  inhibition at 1 µM: 23.3%

## C[C@]12CC[C@H]3[C@@H](CCC4=CC(=O)CC[C@@]43N=C=O)[C@@H]1CCC2=O
Aromatase [20]
  INH: < 20%

## C[C@]12CCC(=O)C(Sc3ccccc3)=C1CC[C@@H]1[C@@H]2CC[C@]2(C)C(=O)CC[C@@H]12
Aromatase [19]
  pIC50: 6.72

## C[C@]12CC[C@H]3[C@@H](Cc4noc5c4[C@]3(C)CC[C@@H]5O)[C@@H]1CC[C@@H]2O
Aromatase [16]
  pIC50: 3.92
Aromatase [17]
  inhibition (INH): 50%

## C[C@]12CCC(=O)C(c3ccc(OS(N)(=O)=O)cc3)=C1CC[C@@H]1[C@@H]2CC[C@]2(C)C(=O)CC[C@@H]12
Aromatase [15]
  pIC50: 6.00
Aromatase [21]
  pKi: 7.01

## C[C@H]1C[C@@]2(C)C(=CC1=O)CC[C@@H]1[C@@H]2CC[C@]2(C)C(=O)CC[C@@H]12
Aromatase [9]
  pIC50: 6.60
Aromatase [10]
  pKi: 7.66
